Experiments:
plant tissues = assay: Regenerability of plant tissues exposed to colchicine (own experiments); format: cell-based; conditions: levels of colchicine below levels used for chromosome doubling
Description: The ability to produce dihaploid transformed plants without the use of an added chromosome doubling agent is a huge advantage. Chromosome doubling agents tend to be highly toxic chemicals because they are antimicrotubule agents. Also, when using chromosome doubling agents to produce dihaploids from haploids some tetraploids are formed as well. Also, optimization of the chromosome doubling agent is detrimental to the production of transformants in the transformation process.

R0 plants = assay: Comparison of doubling with and without colchicine: ploidy number of R0 plants; format: in vivo, corn
Description: Comparison of Doubling with and without Colchicine
This is about a 3-fold increase in the amount of doubling. The doubling from the Agrobacterium-mediated transformation process is about as efficient as a very low level of colchicine (50%), but not as effective as a more typical amount (83%).

COc1cc2c(c(OC)c1OC)-c1ccc(OC)c(=O)cc1[C@@H](NC(C)=O)CC2 [colchicine]
regenerability of plant tissues (plant tissues): greatly diminish the regenerability of plant tissues
% diploid (R0 plants; no transformation + 0.01% colchicine + plant regeneration (very low level of colchicine)): 50%
% diploid (R0 plants; no transformation + 0.025% colchicine + plant regeneration (more typical amount used for doubling)): 83%
